We go through 25 compounds from patent US20240182445A1 (ONO PHARMACEUTICAL CO., LTD., priority 2019, published 2024).

One assay deals with T1, human TREK-1 (Homo sapiens, UniProt O95069).
T1 construct: expressed in transfected cells
T1 sequence (O95069 1-426): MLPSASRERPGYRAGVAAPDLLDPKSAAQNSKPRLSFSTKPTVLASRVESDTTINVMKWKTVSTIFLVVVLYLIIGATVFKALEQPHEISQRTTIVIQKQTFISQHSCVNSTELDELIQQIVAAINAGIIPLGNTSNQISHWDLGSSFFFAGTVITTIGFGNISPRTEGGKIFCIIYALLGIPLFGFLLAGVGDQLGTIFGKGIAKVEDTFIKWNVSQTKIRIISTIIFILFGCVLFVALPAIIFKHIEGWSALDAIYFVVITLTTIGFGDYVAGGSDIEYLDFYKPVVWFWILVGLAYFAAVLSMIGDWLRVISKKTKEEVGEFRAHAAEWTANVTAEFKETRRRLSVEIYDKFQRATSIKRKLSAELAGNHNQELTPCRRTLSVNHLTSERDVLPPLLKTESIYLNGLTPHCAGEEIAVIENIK
In words: TREK-1 Thallium (Tl+) flux assay, Method 1. Conditions: TREK-1 Thallium (Tl+) flux assay, Method 1. In kind it is cell-based. The procedure:
The term “thallium flux assay” herein refers to a fluorescence-based assay used to monitor the activity of TREK channels. Thallium is a congener of potassium that readily fluxes through the pore of TREK channels. Thallium flux is measured using a commercially available, thallium-sensitive fluorescent dye called Thallos. The detail method is described below.
CHO-K1 cells stably expressing human TREK-1 were plated in 384-well plates, cultured overnight, loaded with Thallos dye the following day. Test compounds or control compound (tert-butyl (3-((4-(benzyloxy)-2-methylphenyl)carbamoyl)-4-chlorophenyl)carbamate) or 0.3% DMSO (vehicle control) which were prepared on separate plates were added to the cell plates and incubated for 10 min, and then the cells were treated with thallium stimulus buffer to initiate thallium flux. To measure the efficacy and potency of test compounds, the change in fluorescence intensity (ΔRatio) and % inhibition were calculated using the following equations:
ΔRatio=(fluorescence intensity at 25 seconds after thallium addition)/(average of fluorescent intensity before thallium addition)
Take `CCOc1ccc(-c2cnc(NC(=O)c3c(Cl)cnn3C3CCN(C(=O)OC(C)(C)C)CC3)c(C)c2)cc1` [Compound 431, tert-butyl 4-(4-chloro-5-((5-(4-ethoxyphenyl)-3-methylpyridin-2-yl)carbamoyl)-1H-pyrazol-1-yl)piperidine-1-carboxylate]: the IC50 came out at 6400 nM.
Same read-out and setting: the value for `COc1c(F)cc(-c2cnc(NC(=O)c3c(Cl)cnn3C3CCN(C(C)=O)CC3)c(C)c2)cc1F` [Compound 428, 1-(1-acetylpiperidin-4-yl)-4-chloro-N-(5-(3,5-difluoro-4-methoxyphenyl)-3-methylpyridin-2-yl)-1H-pyrazole-5-carboxamide] was 5310 nM; that for `CC(=O)N1CCC(n2ncc(Cl)c2C(=O)Nc2ncc(-c3ccc(C(F)(F)F)cc3)cc2C)CC1` [Compound 427, 1-(1-acetylpiperidin-4-yl)-4-chloro-N-(3-methyl-5-(4-(trifluoromethyl)phenyl)pyridin-2-yl)-1H-pyrazole-5-carboxamide] was 5210 nM.

Still in this assay, the particulars now being: TREK-1 Thallium (Tl+) flux assay; no *^12 (Method 2) mark on these rows.
`CC(=O)N1CCC[C@H](Cn2ncc(Cl)c2C(=O)Nc2ncc(C#Cc3ccccc3)cc2C)C1` [Compound 296, (S)-1-((1-acetylpiperidin-3-yl)methyl)-4-chloro-N-(3-methyl-5-(phenylethynyl)pyridin-2-yl)-1H-pyrazole-5-carboxamide] yielded an IC50 of 530 nM. This lies in the sub-micromolar range.
Consider `Cc1ccc(C#Cc2cnc(NC(=O)c3c(Cl)cnn3[C@H]3CCOC3)c(C)c2)cc1` [Compound 316, (S)-4-chloro-N-(3-methyl-5-(p-tolylethynyl)pyridin-2-yl)-1-(tetrahydrofuran-3-yl)-1H-pyrazole-5-carboxamide], for which 610 nM corresponded to half-maximal inhibition (IC50).
With `Cc1cc(C#Cc2ccc(F)cc2)cnc1NC(=O)c1c(Cl)cnn1CC1CCCN(C(=O)C2COCCO2)C1` (stereo not shown) [Compound 223, 1-((1-(1,4-dioxane-2-carbonyl)piperidin-3-yl)methyl)-4-chloro-N-(5-((4-fluorophenyl)ethynyl)-3-methylpyridin-2-yl)-1H-pyrazole-5-carboxamide], the IC50 was found to be 340 nM. Against the preceding compound, the IC50 is about 1.8-fold lower.
Same read-out and setting: the value for `Cc1cc(C#Cc2ccccc2)cnc1NC(=O)c1c(Cl)cnn1[C@@H]1CCN(C(=O)OC(C)(C)C)C1` [Compound 353, tert-butyl (R)-3-(4-chloro-5-((3-methyl-5-(phenylethynyl)pyridin-2-yl)carbamoyl)-1H-pyrazol-1-yl)pyrrolidine-1-carboxylate] was 850 nM; that for `CC(C)(C)OC(=O)N1CCC(n2ncc(Cl)c2C(=O)Nc2ncc(C#Cc3cccs3)cc2F)CC1` [Compound 335, tert-butyl 4-(4-chloro-5-((3-fluoro-5-(thiophen-2-ylethynyl)pyridin-2-yl)carbamoyl)-1H-pyrazol-1-yl)piperidine-1-carboxylate] was 700 nM.
On the same count and under the same terms, the value for `CC(=O)N1CCC(F)(Cn2ncc(Cl)c2C(=O)Nc2ncc(C#Cc3ccccc3)cc2F)CC1` [Compound 228, 1-((1-acetyl-4-fluoropiperidin-4-yl)methyl)-4-chloro-N-(3-fluoro-5-(phenylethynyl)pyridin-2-yl)-1H-pyrazole-5-carboxamide] was 350 nM; that for `CC(=O)N1CCC(CCn2ncc(Cl)c2C(=O)Nc2ncc(C#Cc3cccs3)cc2F)CC1` [Compound 311, 1-(2-(1-acetylpiperidin-4-yl)ethyl)-4-chloro-N-(3-fluoro-5-(thiophen-2-ylethynyl)pyridin-2-yl)-1H-pyrazole-5-carboxamide] was 590 nM; that for `Cc1cc(C#Cc2ccccc2)cnc1NC(=O)c1c(Cl)cnn1CC1CCCOC1` (stereo not shown) [Compound 280, 4-chloro-N-(3-methyl-5-(phenylethynyl)pyridin-2-yl)-1-((tetrahydro-2H-pyran-3-yl)methyl)-1H-pyrazole-5-carboxamide] was 490 nM.
Still for that read-out and setting: the value for `CC(=O)N[C@H]1C[C@H](n2ncc(Cl)c2C(=O)Nc2ncc(C#Cc3ccc(F)cc3)cc2C)C1` [Compound 351, 1-(trans-3-acetamidocyclobutyl)-4-chloro-N-(5-((4-fluorophenyl)ethynyl)-3-methylpyridin-2-yl)-1H-pyrazole-5-carboxamide] was 820 nM; that for `Cc1cc(C#Cc2ccccc2)cnc1NC(=O)c1c(Cl)cnn1[C@H]1C[C@@H]2CN(C(=O)C(C)(C)C)C[C@@H]2C1` [Compound 352, 4-chloro-1-[(3aR,5s,6aS)-2-(2,2-dimethylpropanoyl)octahydrocyclopenta [c]pyrrol-5-yl]-N-[3-methyl-5-(phenylethynyl)pyridin-2-yl]-1H-pyrazole-5-carboxamide] was 840 nM.
For `Cc1cc(C#Cc2cccc(F)c2)cnc1NC(=O)c1c(Cl)cnn1[C@H]1CCOC1` [Compound 333, (S)-4-chloro-N-(5-((3-fluorophenyl)ethynyl)-3-methylpyridin-2-yl)-1-(tetrahydrofuran-3-yl)-1H-pyrazole-5-carboxamide], the IC50 is 670 nM.

Still in this assay, the particulars now being: TREK-1 Thallium (Tl+) flux assay; values without footnote *12 are Method 1.
Turning to `O=C(Nc1ncc(C#Cc2ccccc2)cc1F)c1c(Cl)cnn1CC1CCN(C(=O)C2CC2)C1` (stereo not shown) [Compound 43, 4-chloro-1-((1-(cyclopropanecarbonyl)pyrrolidin-3-yl)methyl)-N-(3-fluoro-5-(phenylethynyl)pyridin-2-yl)-1H-pyrazole-5-carboxamide], it took 130 nM to reach half-maximal inhibition (IC50).
On the same count and under the same terms, the value for `CC(=O)N1CCC(n2ncc(Cl)c2C(=O)Nc2ncc(C#Cc3cccc(F)c3)cc2C)CC1C` (stereo not shown) [Compound 72, 1-(1-acetyl-2-methylpiperidin-4-yl)-4-chloro-N-(5-((3-fluorophenyl)ethynyl)-3-methylpyridin-2-yl)-1H-pyrazole-5-carboxamide] was 160 nM; that for `O=C(Nc1ncc(C#Cc2cccs2)cc1F)c1c(Cl)cnn1C1CCN(C(=O)C2CC2)CC1` [Compound 139, 4-chloro-1-(1-(cyclopropanecarbonyl)piperidin-4-yl)-N-(3-fluoro-5-(thiophen-2-ylethynyl)pyridin-2-yl)-1H-pyrazole-5-carboxamide] was 220 nM.
As for `CC(C)(C)OC(=O)N1CCC(F)(Cn2ncc(Cl)c2C(=O)Nc2ncc(C#Cc3ccccc3)cc2F)CC1` [Compound 134, tert-butyl 4-((4-chloro-5-((3-fluoro-5-(phenylethynyl)pyridin-2-yl)carbamoyl)-1H-pyrazol-1-yl)methyl)-4-fluoropiperidine-1-carboxylate], half-maximal inhibition (IC50) was put at 220 nM. That is a sub-micromolar value.
For the compound `Cc1cc(C#Cc2cccs2)cnc1NC(=O)c1c(Cl)cnn1[C@H]1C[C@@H]2CN(C(=O)C(C)C)C[C@@H]2C1` [Compound 187, 4-chloro-1-[(3aR,5s,6aS)-2-(2-methylpropanoyl)octahydrocyclopenta [c]pyrrol-5-yl]-N-{3-methyl-5-[(thiophen-2-yl)ethynyl]pyridin-2-yl}-1H-pyrazole-5-carboxamide], it took 290 nM to reach half-maximal inhibition (IC50).
The compound `CC(C)C(=O)N1CCC(F)(Cn2ncc(Cl)c2C(=O)Nc2ncc(C#Cc3ccccc3)cc2F)CC1` [Compound 190, 4-chloro-1-((4-fluoro-1-isobutyrylpiperidin-4-yl)methyl)-N-(3-fluoro-5-(phenylethynyl)pyridin-2-yl)-1H-pyrazole-5-carboxamide] displayed an IC50 of 290 nM. This lies in the sub-micromolar range.
Same read-out and setting: the same measure for `Cc1cc(C#Cc2cccs2)cnc1NC(=O)c1c(Cl)cnn1[C@H]1CCOC1` [Compound 89, (S)-4-chloro-N-(3-methyl-5-(thiophen-2-ylethynyl)pyridin-2-yl)-1-(tetrahydrofuran-3-yl)-1H-pyrazole-5-carboxamide]: 180 nM; for `CC(=O)N1CCC(n2ncc(Cl)c2C(=O)Nc2ncc(C#Cc3cccc(F)c3)cc2C)CC1` [Compound 71, 1-(1-acetylpiperidin-4-yl)-4-chloro-N-(5-((3-fluorophenyl)ethynyl)-3-methylpyridin-2-yl)-1H-pyrazole-5-carboxamide]: 160 nM.
The same measure, in the same setting: the same measure for `Cc1cc(C#Cc2ccccc2)cnc1NC(=O)c1c(Cl)cnn1C1CCN(S(C)(=O)=O)CC1` [Compound 163, 4-chloro-N-(3-methyl-5-(phenylethynyl)pyridin-2-yl)-1-(1-(methylsulfonyl)piperidin-4-yl)-1H-pyrazole-5-carboxamide]: 260 nM; for `Cc1cc(C#Cc2cccs2)cnc1NC(=O)c1c(Cl)cnn1C1CC2(C1)CN(C(=O)C(C)C)C2` [Compound 46, 4-chloro-1-(2-isobutyryl-2-azaspiro[3.3]heptan-6-yl)-N-(3-methyl-5-(thiophen-2-ylethynyl)pyridin-2-yl)-1H-pyrazole-5-carboxamide]: 130 nM; for `O=C(Nc1ncc(C#Cc2ccccc2)cc1F)c1c(Cl)cnn1C1CCN(C(=O)CC(F)(F)F)CC1` [Compound 55, 4-chloro-N-(3-fluoro-5-(phenylethynyl)pyridin-2-yl)-1-(1-(3,3,3-trifluoropropanoyl)piperidin-4-yl)-1H-pyrazole-5-carboxamide]: 140 nM.

The term IC50 denotes the point on the concentration scale where inhibition reaches its midpoint.
